The subject of assay [1] is Sweetpotato Whitefly-Crawler (WF) (Bemisia tabaci) (BEMITA). Briefly: Insecticidal test for Sweetpotato Whitefly-Crawler (WF) in foliar spray assay on cotton plants. The assay is classed as in vivo. The note with it: 216 h, read-out: WF 200 ppm, % Control (or Mortality) rating. The source says: Insecticidal Test for Sweetpotato Whitefly-Crawler (WF) (Bemisia tabaci) (BEMITA) in Foliar Spray Assay
The sweetpotato whitefly (Bemisia tabaci) has been reported as a serious pest of cultivated crops world-wide. It has an extremely wide host range attacking more than 500 species of plants from 63 plant families. Weeds often serve as alternate hosts of crop pests. Direct feeding damage is caused by the piercing and sucking sap from the foliage of plants. This feeding causes weakening and early wilting of the plant and reduces the plant growth rate and yield Indirect damage results by the accumulation of honeydew produced by the whiteflies. Honeydew serves as a substrate for the growth of black sooty mold on leaves and fruit reducing photosynthesis and lessens the market value of the plant or yield. […] The sweetpotato whitefly is considered the most common and important whitefly vector of plant viruses worldwide.
Cotton plants (Gossypium hirsutum) grown in 3-inch pots, with 1 small (4-5 cm) true leaves, were used as test substrate. The plants were infested with 200-400 whitefly eggs 4-5 days prior to chemical application. Four pots with individual plants were used for each treatment. Test compounds (2 mg) were dissolved in 1 mL of acetone solvent, forming stock solutions of 2000 ppm test compound. The stock solutions were diluted 10× with 0.025% Tween 20 in water (diluents) to obtain the solution at 200 ppm test compound. A hand-held aspirator-type sprayer was used for spraying a solution to both sides of cotton leaves until runoff. Reference plants (solvent check) were sprayed with the diluent only containing 10% by volume of acetone solvent. Treated plants were held in a holding room for 9 days at approximately 25° C. and ambient relative humidity (RH) prior to grading. Evaluation was conducted by counting the number of live 3-4 nymph stage per plant under a microscope. Percent control was measured by using Abbott's correction formula (W. S. Abbott, “A Method of Computing the Effectiveness of an Insecticide” J. Econ. Entomol. 18 (1925), pp. 265-267) as follows.
Biological Data for Green Peach Aphid (GPA) (MYZUPE) and Sweetpotato Whitefly-Crawler (WF) (BEMITA)” (see table section). Corrected % Control=100*(X−Y)/X
X=No. of live nymphs on solvent check plants and
Y=No. of live nymphs on treated plants
(§1) The mortality efficiency of the pesticidal compounds against GPA and WF insects was determined after treatment.

The subject of assay [2] is Green Peach Aphid (GPA) (Myzus persicae) (MYZUPE). Briefly: Bioassay for Green Peach Aphid (GPA), foliar spray on cabbage seedlings. The assay is classed as in vivo. The note with it: 72 h, read-out: GPA 200 ppm, % Control (or Mortality) rating.
Text: Bioassay for Green Peach Aphid (GPA) (Myzus persicae) (MYZUPE)
The green peach aphid (Myzus persicae) is the most significant aphid pest of peach trees, causing decreased growth, shriveling of the leaves, and the death of various tissues. It is also hazardous because it acts as a vector for the transport of plant viruses, such as potato virus Y and potato leafroll virus to members of the nightshade/potato family Solanaceae, and various mosaic viruses to many other food crops. GPA attacks such plants as broccoli, burdock, cabbage, carrot, cauliflower, daikon, eggplant, green beans, lettuce, macadamia, papaya, peppers, sweet potatoes, tomatoes, watercress, and zucchini, among other plants GPA also attacks many ornamental crops such as carnation, chrysanthemum, flowering white cabbage, poinsettia, and roses. GPA has developed resistance to many pesticides.
Cabbage seedlings grown in 3-inch pots, with 2-3 small (3-5 cm) true leaves, were used as test substrate. The seedlings were infested with 20-50 GPA (wingless adult and nymph stages) one day prior to chemical application. Four pots with individual seedlings were used for each treatment. Test compounds (2 mg) were dissolved in 2 mL of acetone/methanol (1:1) solvent, forming stock solutions of 1000 ppm test compound. The stock solutions were diluted 5× with 0.025% Tween 20 in water to obtain the solution at 200 ppm test compound. A hand-held aspirator-type sprayer was used for spraying a solution to both sides of […] leaves until runoff. Reference plants (solvent check) were sprayed with the diluent only containing 20% by volume of acetone/methanol (1:1) solvent. Treated plants were held in a holding room for three days at approximately 25° C. and ambient relative humidity (RH) prior to grading. Evaluation was conducted by counting the number of live aphids per plant under a microscope. Percent control was measured by using Abbott's correction formula (W. S. Abbott, “A Method of Computing the Effectiveness of an Insecticide” J. Econ. Entomol. 18 (1925), pp. 265-267) as follows. Corrected % Control=100*(X−Y)/X
X=No. of live aphids on solvent check plants and
Y=No. of live aphids on treated plants
Biological Data for Green Peach Aphid (GPA) (MYZUPE) and Sweetpotato Whitefly-Crawler (WF) (BEMITA)” (see table section).
as §1

Setting [3] is: 200 ppm foliar spray on cotton plants, graded after 9 days, Abbott corrected % control.
[4] abbreviates: 200 ppm foliar spray on cabbage seedlings, graded after three days, Abbott corrected % control.

Like-named read-outs stand apart in the source and are kept apart here.

One may read the mortality as the share of the test organisms that died. For the compound `CCN(C(=O)CC/C(=N\OCCCCC(F)(F)F)c1cccs1)c1cn(-c2cccnc2)nc1Cl` [FA28, (E)-N-(3-Chloro-1-(pyridin-3-yl)-1H-pyrazol-4-yl)-N-ethyl-4-(thiophen-2-yl)-4-(((5,5,5-trifluoropentyl)oxy)imino)butanamide], the mortality at 200 ppm in assay [1] (setting [3]) and in assay [2] (setting [4]) was 0 to 80% in each case.

For `CCN(C(=O)CCN(CC(F)F)C(=O)CCC(F)(F)F)c1cn(-c2cccnc2)nc1Cl` [Compound F89, N-(3-((3-Chloro-1-(pyridin-3-yl)-1H-pyrazol-4-yl)(ethyl)amino)-3-oxopropyl)-N-(2,2-difluoroethyl)-4,4,4-trifluorobutanamide], the mortality at 200 ppm in assay [1] (setting [3]) and in assay [2] (setting [4]) was 80 to 100% in each case.

With `CCN(C(=O)CNC(=O)/C=C/C(F)(F)F)c1cn(-c2cccnc2)nc1Cl` [Compound F99, (E)-N-(2-((3-Chloro-1-(pyridin-3-yl)-1H-pyrazol-4-yl)(ethyl)amino)-2-oxoethyl)-4,4,4-trifluorobut-2-enamide], the mortality at 200 ppm was in the range of 80 to 100% in assay [1] (setting [3]) and 0 to 80% in assay [2] (setting [4]).

As for `CCN(C(=O)CC1CN(Cc2ccc(C(F)(F)F)cc2)C1=O)c1cn(-c2cccnc2)nc1Cl` (stereo not drawn) [Compound F14], the mortality at 200 ppm in assay [1] (setting [3]) was in the range of 80 to 100%; in assay [2] (setting [4]) it was 0 to 80%.

With `CCN(C(=O)CCC(=O)CCC(F)(F)F)c1cn(-c2cccnc2)nc1Cl` [FA76, N-(3-Chloro-1-(pyridin-3-yl)-1H-pyrazol-4-yl)-N-ethyl-7,7,7-trifluoro-4-oxoheptanamide], the figures for the mortality at 200 ppm in assay [1] (setting [3]) and in assay [2] (setting [4]) were 80 to 100% and 0 to 80%, respectively.

`CCN(C(=O)CC/C(C)=N/OCCCC(F)(F)F)c1cn(-c2cccnc2)nc1Cl` [FA19, (E/Z)-N-(3-Chloro-1-(pyridin-3-yl)-1H-pyrazol-4-yl)-N-ethyl-4-((4,4,4-trifluorobutoxy)imino) pentanamide]: the mortality at 200 ppm was 80 to 100% in assay [1] (setting [3]) and 0 to 80% in assay [2] (setting [4]).

Turning to `CCN(C(=O)CC/C(C)=N/OCC(F)(F)F)c1cn(-c2cccnc2)nc1Cl` [Compound F51, (E/Z)-N-(3-Chloro-1-(pyridin-3-yl)-1H-pyrazol-4-yl)-N-ethyl-4-((2,2,2-trifluoroethoxy)imino) pentanamide], the mortality at 200 ppm in assay [1] (setting [3]) and in assay [2] (setting [4]) was 80 to 100% in each case.

As for `CN(C(=O)CCN1CCCCC1=O)c1cn(-c2cccnc2)nc1Cl` [Compound F49, N-(3-Chloro-1-(pyridin-3-yl)-1H-pyrazol-4-yl)-N-methyl-3-(2-oxopiperidin-1-yl)propanamide], the mortality at 200 ppm in assay [1] (setting [3]) and in assay [2] (setting [4]) was 80 to 100% throughout.

Consider `CCN(C(=O)CCN(CC(F)F)C(=O)CC1CC1)c1cn(-c2cccnc2)nc1Cl` [Compound F125, N-(3-Chloro-1-(pyridin-3-yl)-1H-pyrazol-4-yl)-3-(2-cyclopropyl-N-(2,2-difluoroethyl)acetamido)-N-ethylpropanamide], for which the mortality at 200 ppm in assay [1] (setting [3]) and in assay [2] (setting [4]) was 80 to 100% each time.

As for `CCN(C(=O)CC/C(=N/OCC1CC(F)(F)C1)c1cccs1)c1cn(-c2cccnc2)nc1Cl` [FA31, (Z)-N-(3-Chloro-1-(pyridin-3-yl)-1H-pyrazol-4-yl)-4-(((3,3-difluorocyclobutyl)methoxy)imino)-N-ethyl-4-(thiophen-2-yl)butanamide], the values for the mortality at 200 ppm in assay [1] (setting [3]) and in assay [2] (setting [4]) were 0 to 80% and < 0%, respectively.

With `CCN(C(=O)C1CCN(C(=O)OC(C)(C)C)C1)c1cn(-c2cccnc2)nc1Cl` (stereo not drawn) [Compound F11], the mortality at 200 ppm was 80 to 100% in assay [1] (setting [3]) and 0 to 80% in assay [2] (setting [4]).

Regarding `CCN(C(=O)CCN(CC(F)F)C(=O)n1ccnc1)c1cn(-c2cccnc2)nc1Cl` [Compound F17, N-(3-((3-chloro-1-(pyridin-3-yl)-1H-pyrazol-4-yl)(ethyl)amino)-3-oxopropyl)-N-(2,2-difluoroethyl)-1H-imidazole-1-carboxamide], the mortality at 200 ppm in assay [1] (foliar) was in the range of 80 to 100%; in assay [2] (foliar) it was 0 to 80%.

For `CCN(C(=O)CNC(=O)C1(C)CC1(F)F)c1cn(-c2cccnc2)nc1Cl` (stereo not drawn) [Compound F1, N-(2-((3-Chloro-1-(pyridin-3-yl)-1H-pyrazol-4-yl)(ethyl)amino)-2-oxoethyl)-2,2-difluoro-1-methylcyclopropanecarboxamide], the mortality at 200 ppm in assay [1] (setting [3]) and in assay [2] (setting [4]) was 80 to 100% throughout.

With `CCN(C(=O)CN(C)C(=O)CCC(F)(F)F)c1cn(-c2cccnc2)nc1Cl` [Compound F5, N-(2-((3-Chloro-1-(pyridin-3-yl)-1H-pyrazol-4-yl)(ethyl)amino)-2-oxoethyl)-4,4,4-trifluoro-N-methylbutanamide], the mortality at 200 ppm in assay [1] (setting [3]) and in assay [2] (setting [4]) was 80 to 100% in each case.

In the case of `CCN(C(=O)CCC(=O)O)c1cn(-c2cccnc2)nc1Cl` [Compound C1, 4-((3-chloro-1-(pyridin-3-yl)-1H-pyrazol-4-yl)(ethyl)amino)-4-oxobutanoic acid], the mortality at 200 ppm is 0 to 80% in assay [1] (setting [3]) and < 0% in assay [2] (setting [4]).

On to `CCN(C(=O)CCC(=O)NCc1ccc(C)o1)c1cn(-c2cccnc2)nc1Cl` [Compound F13, N1-(3-Chloro-1-(pyridin-3-yl)-1H-pyrazol-4-yl)-N1-ethyl-N4-((5-methylfuran-2-yl)methyl)succinamide], for which the mortality at 200 ppm in assay [1] (setting [3]) is 80 to 100%; in assay [2] (setting [4]), 0 to 80%.

Take `CCN(C(=O)CCN(CC(F)F)C(=O)C1CC1(F)F)c1cn(-c2cccnc2)nc1Cl` (stereo not drawn) [Compound F34, N-(3-((3-chloro-1-(pyridin-3-yl)-1H-pyrazol-4-yl)(ethyl)amino)-3-oxopropyl)-N-(2,2-difluoroethyl)-2,2-difluorocyclopropanecarboxamide]: the mortality at 200 ppm in assay [1] (setting [3]) was 80 to 100%; in assay [2] (setting [4]), 0 to 80%.

In the case of `CCN(C(=O)CC/C(=N/OCC(F)(F)F)c1cccs1)c1cn(-c2cccnc2)nc1Cl` [FA35, (E/Z)-N-(3-Chloro-1-(pyridin-3-yl)-1H-pyrazol-4-yl)-N-ethyl-4-(thiophen-2-yl)-4-((2,2,2-trifluoroethoxy)imino)butanamide], the figures for the mortality at 200 ppm in assay [1] (setting [3]) and in assay [2] (setting [4]) were 80 to 100% and 0 to 80%, respectively.

As to `CCN(C(=O)CCCC(C)=O)c1cn(-c2cncc(F)c2)nc1C` [FA70, N-Ethyl-N-(1-(5-fluoropyridin-3-yl)-3-methyl-1H-pyrazol-4-yl)-5-oxohexanamide], the mortality at 200 ppm is 80 to 100% in assay [1] (setting [3]) and 0 to 80% in assay [2] (setting [4]).

As for `CC(=O)N[C@@H]1C=C[C@H](C(=O)N(C)c2cn(-c3cccnc3)nc2Cl)C1` [Compound F86, (1R,4S)-4-acetamido-N-(3-chloro-1-(pyridin-3-yl)-1H-pyrazol-4-yl)-N-methyl-cyclopent-2-enecarboxamide], the mortality at 200 ppm in assay [1] (setting [3]) and in assay [2] (setting [4]) was 80 to 100% throughout.

In the case of `CCN(C(=O)CCNC(=O)CC#N)c1cn(-c2cccnc2)nc1Cl` [Compound F101, N-(3-Chloro-1-(pyridin-3-yl)-1H-pyrazol-4-yl)-3-(2-cyanoacetamido)-N-ethylpropanamide], the figures for the mortality at 200 ppm in assay [1] (setting [3]) and in assay [2] (setting [4]) were 80 to 100% and 0 to 80%, respectively.

Source of the values: patent US9523100B2, “Pesticidal compositions and related methods” (DOW AGROSCIENCES LLC, priority 2013, dated 2016).
